Data from paper PMC5910032 (ACS synthetic biology, 2018).

How the values were obtained:
Assay type in all cases: binding
FITC-E2 scFv VH W118G [1] = assay: SPR inhibition in solution assay
FITC-E2 scFv (wild-type) = assay: fluorescein fluorescence quenching, titration of purified scFv
FITC-E2 scFv VH W118G [2] = assay: dose-dependent rescue of fluorescein quenching

Compound	IC50 (FITC-E2 scFv VH W118G [1]) [nM]	EC50 (FITC-E2 scFv (wild-type)) [nM]	EC50 (FITC-E2 scFv VH W118G [2]) [nM]
O=C1OC2(c3ccc(O)cc3Oc3cc(O)ccc32)c2ccccc21 [fluorescein]	296	23 to 27	
c1ccc2[nH]ccc2c1 [indole]			220000
